The record followed here is patent US5286740A, “Carbamoyl derivatives” (Imperial Chemical Industries PLC, priority 1989, dated 1994).

For the series, the system named is leukotriene LTD4 aerosol challenge in guinea-pigs. The series is described as follows: guinea-pig aerosol test (LTD4 aerosol challenge, onset of dyspnea). It counts as in vivo. The settings on record: for ED50: Cavia porcellus, oral administration, solution in poly(ethylene glycol), predosed generally 1 hour before LTD4 aerosol, read-out: ED50 (protection against LTD4-induced dyspnea). The procedure: According to this procedure, guinea-pigs are predosed with test compound as a solution in poly(ethylene glycol) (generally 1 hour) before an aerosol challenge of leukotriene LTD4 (starting with 2 ml of a 30 microgram/ml solution) and the effect of the test compound on the average time of leukotriene initiated change in breathing pattern (such as onset of dyspnea) recorded and compared with that in undosed-, control guinea-pigs. Percent protection engendered by a test compound was calculated from the time delay to the onset of dyspnea compared to that for control animals.

Consider `COc1cc(C(=O)NS(=O)(=O)c2ccccc2C)ccc1Cc1cn(C)c2ccc(C(=O)NC[C@H](C)CC(F)(F)F)cc12` [Example 2, (R)-3-Methoxy-4-[1-methyl-5-(2-methyl-4,4,4-trifluorobutylcarbamoyl)indol-3-ylmethyl]-N-(2-methylphenylsulfonyl)benzamide], for which the ED50 was determined as 1.1 µmol/kg. The untoward side-effects result (oral, at several multiples of the minimum effective dose) was “without any indication of untoward side-effects”.

For the compound `COc1cc(C(=O)NS(=O)(=O)c2ccccc2C)ccc1Cc1cn(C)c2ccc(C(=O)NCC3CCCC3)cc12` [reference compound], the ED50 was 19.2 µmol/kg.

A word on the ED50: it is the dose that gives a 50% effect, or the effect in half of the subjects.
